One test addresses D(3) dopamine receptor (Homo sapiens, UniProt P35462). Briefly: (§1) Membranes were incubated in a total volume of 200 ul with a fixed concentration of radioligand (final concentration approximately 0.7 nM [3H]-spiperone for D2, 0.5 nM [3H]-spiperone for D3, and 1.1 nM [3H]-ketanserin for 5-HT2A) and ten concentrations of test compound in ranging between 10 uM-0.1 nM for 1 h at RT. At the end of the incubation, the reaction mixtures were filtered on to unifilter 96-well white microplates with bonded GF/C filters.

For test [1], the target named is 5-hydroxytryptamine receptor 2A (Homo sapiens, UniProt P28223). The test is described as §1.

pKi: −log10 of the molar value.

5-hydroxytryptamine receptor 2A, sequence (P28223 whole entry): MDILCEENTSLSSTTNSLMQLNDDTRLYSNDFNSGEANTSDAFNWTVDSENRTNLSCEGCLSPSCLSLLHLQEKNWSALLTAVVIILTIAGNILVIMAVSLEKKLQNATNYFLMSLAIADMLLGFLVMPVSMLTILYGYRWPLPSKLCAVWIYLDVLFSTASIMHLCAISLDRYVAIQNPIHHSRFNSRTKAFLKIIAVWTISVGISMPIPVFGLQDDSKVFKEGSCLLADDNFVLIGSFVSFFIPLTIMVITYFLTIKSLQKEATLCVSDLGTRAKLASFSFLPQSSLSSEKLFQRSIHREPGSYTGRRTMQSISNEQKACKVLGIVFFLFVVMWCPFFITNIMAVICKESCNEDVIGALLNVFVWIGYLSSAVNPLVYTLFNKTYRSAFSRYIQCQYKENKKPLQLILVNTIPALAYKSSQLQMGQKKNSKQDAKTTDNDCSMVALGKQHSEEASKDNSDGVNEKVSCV
D(3) dopamine receptor, sequence (P35462 whole entry): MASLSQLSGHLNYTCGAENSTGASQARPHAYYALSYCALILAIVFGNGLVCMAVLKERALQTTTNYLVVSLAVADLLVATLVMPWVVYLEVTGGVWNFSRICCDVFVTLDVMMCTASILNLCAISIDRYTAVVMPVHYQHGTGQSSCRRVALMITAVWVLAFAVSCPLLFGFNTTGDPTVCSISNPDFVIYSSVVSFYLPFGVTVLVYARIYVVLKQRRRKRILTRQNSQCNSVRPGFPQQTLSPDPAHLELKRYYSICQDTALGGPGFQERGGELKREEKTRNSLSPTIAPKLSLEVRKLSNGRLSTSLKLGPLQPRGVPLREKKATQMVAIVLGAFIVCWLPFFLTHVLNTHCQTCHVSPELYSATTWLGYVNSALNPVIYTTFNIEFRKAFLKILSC

For orientation: pKi means −log10 of the Ki, conventionally taken in molar units. As for `O=S(=O)(N[C@H]1CC[C@H](CCN2CCC(c3noc4cc(F)ccc34)CC2)CC1)c1cccnc1`, the results for the negative logarithm of the Ki (pKi) (on D(3) dopamine receptor; in test [1]) were 8.71 and 8.61, respectively.

As for `O=C(N[C@H]1CC[C@H](CCN2CCC(c3noc4cc(F)ccc34)CC2)CC1)c1ccc2c(c1)OCO2`, the negative logarithm of the Ki (pKi) is 8.56 at D(3) dopamine receptor and 8.77 in test [1].

In the case of `COCCC(=O)N[C@H]1CC[C@H](CCN2CCC(c3noc4ccc(F)cc34)CC2)CC1`, the pKi at D(3) dopamine receptor is 8.51; in test [1], 7.43.
